Consider one substance from patent publication US20090098050A1, “CALCIUM BINDING PEPTIDES” (THE REGENTS OF THE UNVERSITY OF CALIFORNIA, priority 2005, published 2009).

The nature of assay [1]: Tissue specific binding of DSS peptides and variants in human teeth (CLSM). The settings on record: 12.5 μM labeled peptide. The method, then: FIG. 8: Fluorescence micrographs showing tissue specificity in the binding of DSS peptides and variants. Adult human teeth were exposed to 12.5 μM 5(6)-carboxyfluorescein-labeled peptide without demineralization, washed extensively, and imaged by CLSM. For each section, multiple scans were collected and assembled in an automated mode to generate panels of images representing an area of 13×13 mm, sufficient in most cases to encompass the whole section. The peptides used for each section are labeled beneath each panel, and within each panel the tooth is oriented with the root toward the top of the image and the crown toward the bottom. Tissue layers are labeled as follows: RTD=Root Tip Dentin; CPD=Circumpulpal Dentin; MD=Mantle Dentin; P=Pulp Cavity Wall; DEJ=Dentin-Enamel Junction; E=Enamel; BE=Basal Enamel; CE=Cortical Enamel; CL=Carious Lesion; PB=Periodontal Bone.
In order to investigate the tissue specificity of DSS peptide binding to tooth tissue, sections of human teeth were exposed to DSS peptides and variants, then imaged by CLSM as described in Example 2. The peptides utilized for these experiments were 8DSS, 8ASS, 8DAA, 8NAA, 4DSS, 4ESS, 4NSS, 4DTT, 4ETT, 4NTT, and 6DSS. Sagittal sections of human teeth extracted during normal clinical practice were polished and then incubated for ten minutes in a solution of the appropriate 5(6) carboxyfluorescein-labeled peptide (12.5 μM) containing 10 mM NaCl and 50 mM HEPES, pH 7.0. Control samples were prepared without peptide. Samples were washed extensively after treatment and imaged by CLSM using blue laser illumination (λ=488 nm) and a FITC emission filter, with identical camera and microscope settings for each sample. For each section, multiple scans were collected and assembled in an automated mode to generate panels of images representing an area of 13×13 mm, sufficient in most cases to encompass the whole section. […] Significant binding was also seen to the edges of the pulp cavity.

The nature of assay [2]: Nucleation of hydroxyapatite on tooth enamel and dentin (SEM). Also on record: species or system human. The settings on record: 12.5 μM peptide, SBFn 4 hours then SBFg. The method, then: FIG. 5: Nucleation of hydroxyapatite on enamel (top) and dentin (bottom) surfaces. Surfaces were prepared and treated as described in Example 6 and as indicated by the labels, followed by imaging using Scanning Electron Microscopy. The upper group (top two rows) represents enamel samples, while the lower group (bottom two rows) represents dentin samples. Within each group, the top row represents samples that were not demineralized prior to treatment, and the bottom row represents samples that were demineralized by treatment with phosphoric acid. Scanning Electron Micrographs are shown, scale bars=[…]. Left column: samples that were not exposed to any treatment prior to nucleation and crystal growth. Center column: samples that were exposed to buffer only prior to nucleation and crystal growth. Right column: samples that were exposed to 12.5 μM 8DSS peptide prior to nucleation and crystal growth. Crystal growth indicates early nucleation. To determine whether applying DSS to various preparations of tissue promoted HA nucleation, which could ultimately lead to tissue remineralization, sagittally sectioned adult human teeth (obtained after extraction during normal clinical practice) were polished using a Streurs grinding wheel, and prepared for nucleation experiments. […]

Take “8DSS: peptide containing eight Asp-Ser-Ser (DSS) repeats, SEQ ID NO:15 (DSSDSSDSSDSSDSSDSSDSSDSS; calcium binding peptide containing eight DSS repeats, 8DSS)”: in assay [1] (nondemineralized teeth), the “Tissue binding pattern in healthy tooth section” value is on record as “bound primarily to the mantle dentin”. For the same substance, the “Level of binding (staining) to tooth surfaces” value in assay [1] (ten minutes, identical settings) is recorded as “greatest levels of staining”. Besides, in assay [2], the “Crystal growth (nucleation) on demineralized enamel” value is “significant crystal growth” and the “Crystal growth (nucleation) on nondemineralized dentin” value is reported as “most significant growth”.
